Measurements as given in patent publication US11213701B2, “Neuroprotective quinoline sulfonamides” (priority 2018, dated 2022).

Assays:
[1] = tested on: SUMOylation of His-RanGap (SUMO-E1 (SAE), SUMO-E2 (UBC9), GST-SUMO); experiment: HTRF assay measuring increase in SUMOylation of His-RanGap; format: biochemical; settings: His-RanGap substrate; HTRF 665/620 ratio; 70 nl of 2 mM compound in DMSO per well; 30 min at room temperature; triplicate
Description: Assay measuring increase in SUMOylation of His-RanGap. We utilized an HTRF assay containing SUMO-E1 (SAE), SUMO-E2 (UBC9), GST-SUMO and His-RanGap, a known SUMO substrate, as well as the respective fluorescent antibodies. The assay was run in 1536-well plate format and the selected activators were chosen based on their ability to increase the FRET signal over a baseline level. In 1536-well white plates, 2 μl of phosphate buffered saline (assay buffer) was dispensed into columns 1 and 2, and 2 μl of Mixture 1 (37.5 nM E1 and 100 nM His-RanGap-1) in assay buffer (50 mM Tris-HCl pH 7.4, 0.3 mM DTT, 10 mM MgCl2, 0.005% Tween-20), was dispensed into columns 3-48. Using a pintool, 70 nl of 2 mM compounds in DMSO was dispensed to columns 5-48 and 70 nl of DMSO was dispensed to columns 1-4. Using the Thermo Scientific MultiDrop Combi, 2 μL of Mixture 2 (20 mM ATP, 12.5 nM E2 and 30 nM GST-SUMO in buffer) was dispensed to all wells and incubated for 30 min. at room temperature followed by 1 μl of 500 mM KF. Plates were read on a PheraStar in a HTRF mode (Ex: 337 nm; Em: 620/665 nm). The ratio of fluorescence 665 over 620 was utilized as a readout of the assay. Increase in SUMOylation was calculated by comparison to baseline level. Measurements were done in triplicate.

[2] = tested on: CSM14.1 neuronal cells; experiment: Rescue of CSM14.1 neurons from thapsigargin-induced cell death (ATPlite cell viability); format: cell-based, rat; settings: 15 μM thapsigargin for 20 h after 2 h preincubation, TG alone causes ~100% cell death
Excerpt: Ability of compounds to rescue CSM14.1 neurons from thapsigargin-induced cell death. To assess the ability of the compounds to rescue neurons from ER stress-induced cell death, the rat striatal neuroprogenitor cell line CSM14.1 was used. Endoplasmic reticulum (ER) stress has been established as the major cause of neuronal loss in stroke, ischemia, and neurodegeneration (Tajiri, S.; Oyadomari, S.; Yano, S.; Morioka, M.; Gotoh, T.; Hamada, J. I.; Ushio, Y.; Mori, M. Cell Death Differ. 2004, 11, 403-415; Kohno, K.; Higuchi, T.; Ohta, S.; Kumon, Y.; Sakaki, S. Neurosci. Lett. 1997, 224, 17-20; Iadecola, C.; Zhang, F.; Casey, R.; Nagayama, M.; Ross, M. E. J. Neurosci. 1997, 17, 9157-9164). Thus, we used the known ER stress-causing agent thapsigargin (TG) to model the compromised state in vitro. TG causes 100% cell death in most cases, and compounds were assessed for neuroprotection by measuring cell viability when dosed at 10 μM. CSM14.1 cells were recovered from cultures by trypsinization and plated in 96-well plates and incubated overnight at 32° C. 5 μl of test compound was added to achieve a final concentration of […]. Salubrinal and DMSO without compound were used as positive and negative controls, respectively. After 2 h of preincubation, TG-containing DMEM was added to give a final concentration of 15 μM and incubated for an additional 20 h. Cell viability was assessed by a cellular ATP content assay (ATPlite, PerkinElmer Life Sciences).

[3] = tested on: BGMK cells; experiment: Rescue of BGMK cells from thapsigargin-induced cell death (CCK-8 cell viability); format: cell-based; settings: for % BGMK Cell Viability after treatment in Presence of 10 μM compound: 2 hr pretreatment, TG 24 hrs, TG alone causes ~100% cell death
Excerpt: Ability of compounds to rescue BGMK cells from thapsigargin-induced cell death. To assess an orthogonal cell line and further validate the ability of SUMOylation activators to rescue varied cell types, the compounds were also profiled for cytoprotection in BGMK cells. Again, we used the known ER stress-causing agent thapsigargin (TG) to model the compromised state in vitro. BGMKs were subcultured at 1.2×10^4 cells/ml. Wells treated with compound were done so for 2 hr. […] After treatment, all cells were washed and fed fresh DMEM complete media and CCK-8 development vehicle, incubated for 2 hr, and absorbance was measured to assess viability. Controls were DMSO (0% viability) and Salubrinal (47% viability).

SMILES	% INCREASE IN SUMOylation over endogenous baseline level [1]	% CSM14.1 Cell Viability after treatment with 15 μM TG in Presence of 10 μM compound [2]	% BGMK Cell Viability after treatment in Presence of 10 μM compound [3]	BGMK cell viability (control) ([3]; positive control after thapsigargin injury, DMSO = 0% viability, control concentration not given) [%]
CC(=O)Nc1ccc(S(=O)(=O)Nc2cccc3cccnc23)cc1 [Compound A1, N-(4-(N-(Quinolin-8-yl)sulfamoyl)phenyl)acetamide]	B (B = 21%-30% increase)	B (B = 51%-60% viability)	C (C = 51%-60% viability)	–
O=S(=O)(Nc1cccc2cccnc12)c1ccc(S(=O)(=O)N2CCCC2)cc1 [Compound A2, 4-(Pyrrolidin-1-ylsulfonyl)-N-(quinolin-8-yl)benzenesulfonamide]	D (D = 40%-50% increase in SUMOylation over baseline levels)	C (C = 61%-70% viability of CSM14.1 neurons)	D (D = 61%-70% viability of BGMK cells)	–
O=S(=O)(Nc1cccc2cccnc12)c1ccccc1 [Compound A3, N-(Quinolin-8-yl)benzenesulfonamide]	B (B = 21%-30% increase)	A (A = 40%-50% viability)	A (A = 30%-40% viability)	–
COc1ccc(NS(=O)(=O)c2ccc3ccccc3c2)c2ncccc12 [Compound A4, N-(5-Methoxy-8-quinolinyl)-2-naphthalenesulfonamide]	C (C = 31%-40% increase)	–	–	–
O=[N+]([O-])c1ccccc1S(=O)(=O)Nc1cccc2cccnc12 [Compound A5, 2-Nitro-N-(8-quinolinyl)benzenesulfonamide]	C (C = 31%-40% increase)	–	–	–
Cc1ccc(S(=O)(=O)Nc2cccc3cccnc23)cc1 [Compound A6, 4-Methyl-N-(quinolin-8-yl)benzenesulfonamide]	B (B = 21%-30% increase)	C (C = 61%-70% viability of CSM14.1 neurons)	C (C = 51%-60% viability)	–
Cc1cc(C)n(-c2ccc3cccc(NS(C)(=O)=O)c3n2)n1 [Compound A7, N-[2-(3,5-Dimethyl-1H-pyrazol-1-yl)-8-quinolinyl]methanesulfonamide]	B (B = 21%-30% increase)	–	–	–
CS(=O)(=O)Nc1cccc2cccnc12 [Compound A8, N-(8-Quinolinyl)methanesulfonamide]	B (B = 21%-30% increase)	–	–	–
COc1cc(NS(=O)(=O)c2ccc3ccccc3c2)c2ncccc2c1 [Compound A9, N-(6-Methoxy-8-quinolinyl)-2-naphthalenesulfonamide]	B (B = 21%-30% increase)	–	–	–
COc1cc(NS(=O)(=O)c2ccc(C)cc2)c2ncccc2c1 [Compound A10, N-(6-Methoxy-8-quinolinyl)-4-methylbenzenesulfonamide]	C (C = 31%-40% increase)	–	–	–
O=C(/C=C/c1ccccc1)NC(NC(=S)Nc1cccc2cccnc12)C(Cl)(Cl)Cl (stereo not shown) [Salubrinal, reference compound]	–	–	–	47
